According to patent publication US20230158084A1, “PROBIOTICS, METABOLITES, AND USES THEREOF” (California Institute of Technology, priority 2018, published 2023):
Entries after “also recorded” stand apart in the source; their conditions may differ.

Legend:
BTBR mice [1] = assay: Marble burying (MB), BTBR mice given metabolites; type: in vivo, mouse; settings: BTBR offspring; 10 mM in drinking water before mating and throughout lifetime (prenatal administration); vs untreated vehicle controls
Procedure: FIGS. 5A-D are a series of drawings illustrating that differential metabolites impact ASD-relevant behaviors in SPF mice in accordance with some embodiments herein. FIG. 5A: The abundance of select metabolites in the offspring microbiome is correlated with behavior of male offspring. Spearman correlation between the microbiome and mouse behavior, by donor (See FIGS. 1A-0). […] Color scale denotes Spearman ρ. […] Groups of mice were orally administered 10 mM Taurine or 5AV in drinking water before mating, and throughout their lifetime. Offspring were tested by marble burying, direct social interaction, and open field tests, and compared to untreated vehicle controls. Results are aggregated from 2 independent experiments. NControl=42, […]=52, NTaurine=36. Bar plots denote mean and S.E.M. Hypothesis on differences in means were tested by ANOVA on trimmed means (10%) and subsequent posthoc tests. FIGS. 5E-L: qPCR of BTBR brains after 5AV and taurine administration. Results are aggregated from 2 independent experiments. Hypothesis on differences in means were tested by ANOVA on trimmed means (10%) and subsequent posthoc tests. […] The number of buried marbles (50% or more covered) was then recorded and photographed for reference. […] As such, it will be appreciated that at a given stage of development, some molecules may readily pass through the blood brain barrier, while others may not.

BTBR mice [2] = assay: Direct social interaction (DSI) test, BTBR mice given metabolites; type: in vivo, mouse; settings: BTBR offspring; 10 mM in drinking water before mating and throughout lifetime (prenatal administration); vs untreated vehicle controls
Procedure: FIGS. 5A-D are a series of drawings illustrating that differential metabolites impact ASD-relevant behaviors in SPF mice in accordance with some embodiments herein. FIG. 5A: The abundance of select metabolites in the offspring microbiome is correlated with behavior of male offspring. Spearman correlation between the microbiome and mouse behavior, by donor (See FIGS. 1A-0). […] Color scale denotes Spearman ρ. […] Groups of mice were orally administered 10 mM Taurine or 5AV in drinking water before mating, and throughout their lifetime. Offspring were tested by marble burying, direct social interaction, and open field tests, and compared to untreated vehicle controls. […] Social Behavior (SI)-direct social interaction (DSI) test-As a more sensitive measure for sociability, the direct social interaction test was also used, where a mouse is allowed to interact with a stimulus mouse while the interaction is being recorded. Each mouse was introduced to a fresh empty cage and allowed to habituate for 10 minutes; grooming behavior was scored for the last five minutes of this period. […] A blinded observer scored videos for any social approach, aggression, or grooming behavior […] using the ETHOM software (Shih and Mok, 2000). […] As such, it will be appreciated that at a given stage of development, some molecules may readily pass through the blood brain barrier, while others may not.

[3] = tested on: lncRNAs and ASD-relevant isoforms in the STR and PFC of BTBR mice; assay: qPCR of BTBR brains after 5AV and taurine administration; type: in vivo, mouse; settings: adult metabolite-treated BTBR mice
Description: FIGS. 5A-D are a series of drawings illustrating that differential metabolites impact ASD-relevant behaviors in SPF mice in accordance with some embodiments herein. FIG. 5A: The abundance of select metabolites in the offspring microbiome is correlated with behavior of male offspring. Spearman correlation between the microbiome and mouse behavior, by donor (See FIGS. 1A-0). Benjamini-Hochberg adjusted p-values (α≤0.05) for significant correlations are noted. Color scale denotes Spearman ρ. […] Groups of mice were orally administered 10 mM Taurine or 5AV in drinking water before mating, and throughout their lifetime. Offspring were tested by marble burying, direct social interaction, and open field tests, and compared to untreated vehicle controls. Results are aggregated from 2 independent experiments. NControl=42, N5AV=52, NTaurine=36. Bar plots denote mean and S.E.M. Hypothesis on differences in means were tested by ANOVA on trimmed means (10%) and subsequent posthoc tests. FIGS. 5E-L: qPCR of BTBR brains after 5AV and taurine administration. Results are aggregated from 2 independent experiments. Hypothesis on differences in means were tested by ANOVA on trimmed means (10%) and subsequent posthoc tests. FIGS. 5M-V: series of graphs illustrating E18 B6 feeding 5AV and Taurine targeted metabolomics.
In view of the results described herein, it was further hypothesized that 5AV and taurine exert their effects on behavioral outcomes by altering expression patterns in the brain. To address this hypothesis, brains were collected from adult metabolite-treated BTBR mice and relative expression was quantified for select genes and isoforms that are differentially expressed between TD- and ASD-colonized offspring (FIGS. 3A-J). […] To test whether the expression of splice variants containing exons highlighted by rMATs analysis (see FIG. 3B, Tables 2.1-2.3), isoforms of interest were identified, which contain or exclude exons implicated by the analysis. […] Therefore, treatment with 5AV and taurine according to some embodiments affects the expression of lncRNAs and of specific ASD-relevant isoforms in the brains of BTBR mice treated throughout their lives.

GABA receptor = settings: literature statement; cited from earlier work

SMILES | repetitive behavior, as measured by marble burying (BTBR mice [1]) | sociability / social duration (direct social interaction) (BTBR mice [2]) | expression of isoforms of Tip12 and Pogz [3] | expression of the lncRNAs Gm17259 and Gm13016 in the STR ([3]; striatum) | expression of transcripts of Neurexin 1 in the STR ([3]; striatum) | GABA receptor agonism (GABA receptor) | expression of isoforms containing a A3SS event in Gigyf2 [3]
NCCCCC(=O)O [5AV, 5-Aminovaleric acid] | reduced repetitive behavior | increases sociability | marginal effects | increased | increased in expression | weak GABA receptor agonist | 
NCCS(=O)(=O)O [taurine] | significantly reduces repetitive behavior in male mice | trend toward increasing social duration in all mice; also recorded: increases sociability |  | increased |  | weak GABA agonist | increases the expression
